According to patent US9896491B2, “Composition for treatment of multiple sclerosis” (LIFEBIO LABORATORIES LLC, priority 2009, dated 2018):

Columns and labels:
ESAMBPCAA [1] = assay: ESAMBPCAA mediated MBP hydrolysis in serum of treated EAE DA rats; format: in vivo; details: days 8-12; for rates of MBP-specific auto antibody mediated hydrolysis: median for 6 animals
[2] = tested on: Experimental MS (Theiler's Virus Infection) in SJL mice; assay: Experimental MS (Theiler's Virus Infection): disease manifestation and MDS score; format: in vivo; details: 20 μg of each oligopeptide daily subcutaneous, days 14-24
Description: (§1) The BeAn strain of TMEV used in this study was generated and propagated in BHK-21 cells grown in Dulbecco's modified Eagle's medium supplemented with 7.5% donor calf serum. For i.c. infection, 30 μl of virus solution (0.2×10^6 to 6×10^6 PFU) was injected into the right cerebral hemisphere of 6- to 8-week-old SJL mice (8 animals per group) anesthetized with isoflurane. Clinical symptoms (MDS score) of disease were assessed weekly on the following grading scale: grade 0, no clinical signs; grade 1, mild waddling gait or flaccid tail; grade 2, severe waddling gait; grade 3, moderate hind limb paresis; and grade 4, severe hind limb paralysis. Serum samples collected from animals were quantified for ESAMBPCAA mediated MBP hydrolysis as specified in Example 1
(§2) At day 14 following infection mice were divided into 6 groups ([…]) and treated during 10 days (days 14-24) according following schedule: […]

ESAMBPCAA [3] = assay: ESAMBPCAA mediated MBP hydrolysis in serum of treated TMEV-infected SJL mice; format: in vivo; details: 20 μg of each oligopeptide daily subcutaneous, days 14-24
Description: (§3) MBP hydrolysis by anti MBP auto antibodies was assayed as follows: Purified antibodies (0.1-1 μg) were incubated at 37° C. for 14 h in the final volume of 12.5 μl PBS, 0.02% NaN3 containing 1-2 μg of MBP. The samples were mixed with Laemmli's buffer. The extent of MBP degradation was visualized by SDS-PAGE in Tris-glycine and Tricine buffer systems. For quantitative MBP degradation assay, MBP (10 μM) was incubated at 37° C. with antibodies (60 nM) in 0.1 ml of PBS, 0.02% NaN3 for 12 h. The reaction was stopped by adding 10% TFA up to pH 2.5. The samples were further chromatographed on column C4 4.0/150 (Waters). The amount of non-cleaved MBP was calculated by absorbance monitoring at 280 nm.
as §1, §2

[4] = tested on: Experimental Allergic Encephalomyelitis (EAE) in Dark Agouti (DA) Rats; assay: EAE induced by MBP 63-81 in DA rats: clinical signs score; format: in vivo
Description: Female Dark Agouti (DA) Rats, 8-9 weeks of age, about 110-145 g of weight were used as test animals.
For induction of Experimental Allergic Encephalomyelitis (EAE), rats were injected intradermally at the base of the tail with a total volume of 200 μl of inoculum containing 50 μg of MBP 63-81 (ANASPEC), in saline mixed (1:1) with Complete Freund Adjuvant, (IFA, Sigma), and 1 mg killed M. tuberculosis strain (strain H37 RA; Difco Laboratories, Detroit, Mich.). Beginning 24 hours after EAE induction the rats were followed up daily. On day 9 after the after EAE induction more than 50% of the rats developed signs of paralysis. The animals with multiple sclerosis signs were separated into 10 groups for beginning of treatment. Prior to treatment, blood was collected from 2 rats from each group. At day 9 and 11 after EAE induction, 90% of rats developed signs of EAE.
9-11 days after EAE induction the animals were divided into 9 groups (5-6 rats in each). Each group of rats was treated subcutaneously once daily with different claimed oligopeptide or theirs combinations (equimolar mix) (150 μg) or doses of positive control item (Glatiramer acetate, Copaxone, Teva) or negative control item (0.9% Sodium chloride solution), during 6 days as follows:
Copaxone, claimed oligopeptide and combinations thereof (Mechanical mix) were diluted with 0.9% Sodium chloride to a concentration of 450 μg/ml. Volume of 0.33 ml (150 μg/rat/day) was injected SC during 6 days.
After 6 days of the injections cycle the animals were maintained and followed up till day 28th post EAE induction. Clinical signs score was performed daily during study periods. Animals were observed individually during all study periods. In cases of extended observation period clinical signs were recorded once daily. Observations included changes in the fur, eyes, respiratory rate, vocalization, paralysis, activity and behavior pattern. Score of paralysis signs related to MS of each animal was done daily (during all study periods).
Score gradation was as follows: 0—Normal; 1—Tail weakness; 2—Hind leg weakness or paralysis; 3—Hind leg paralysis, dragging hind limbs; 4—Complete paralysis, unable to move; 5—Death.

[5] = tested on: Experimental Allergic Encephalomyelitis (EAE) in DA rats; assay: MDS score in EAE DA rats; format: in vivo; details: intranasal, days 8-12; FIG. 4; dose-dependent for SEQ ID NO: 2
ESAMBPCAA [6] = assay: Inhibition of ESAMBPCAA mediated MBP hydrolysis by synthetic oligopeptides of MBP fragment 43-68; format: biochemical, human; details: antibodies 30 nM, MBP 4 mkM, 16 h at 37° C.; FIG. 3
Description: as §3
The oligopeptides were assayed for their potency to inhibit ESAMBPCAA mediated MBP hydrolysis using ESAMBPCAA collected from progressive MS Patient as specified in Example 1. Different concentrations of test peptides were mixed with both antibodies (30 nM) and MBP (4 mkM) in TBS with_0.1% NaN3_and 10 mM CaCl2. The samples were incubated for 16 h at 37° C. and analyzed on 15% SDS_PAGE. The gels were stained by Coomassie and analyzed by densitometry with TOTALLAB 2.01 software (Nonlinear Dynamics, Ltd., Newcastle upon Tyne, U.K.). […] Shortening of oligopeptide lengths to less than 6 amino acids lead to complete lack of ESAMBPCAA inhibitory activity.

ESAMBPCAA [7] = assay: ESAMBPCAA mediated MBP hydrolysis in serum samples of progressive MS patients in presence of test substances; format: biochemical, human; details: for MBP-specific auto antibody mediated hydrolysis: test substance 100 nM
Description: as §3
Serum samples collected from 5 patients suffering from progressive MS were quantified for ESAMBPCAA mediated MBP hydrolysis as specified in Example 1 in presence of following substances: […]

For GGDRGAPKRGSGKDSHH [SEQ ID NO: 2], the “rates of MBP-specific auto antibody mediated hydrolysis” value (“rates” for short) (ESAMBPCAA [1]; Day 8 (start of treatment), 50 μg daily intranasal) was 43.1 ± 6.4 pmol/min/nmol, the “rates” value (ESAMBPCAA [1]; Day 8 (start of treatment), 120 μg daily intranasal) was 42.8 ± 5.5 pmol/min/nmol and the “rates” value (ESAMBPCAA [1]; Day 16, 50 μg daily intranasal) was 35.6 ± 4.9 pmol/min/nmol. The “rates” value (ESAMBPCAA [1]; Day 16, 120 μg daily intranasal) was 17.3 ± 5.4 pmol/min/nmol, the “rates” value (ESAMBPCAA [1]; Day 24, 50 μg daily intranasal) was 46.3 ± 2.9 pmol/min/nmol and the “rates” value (ESAMBPCAA [1]; Day 24, 120 μg daily intranasal) was 15.1 ± 3.9 pmol/min/nmol. The “suppression of MBP-specific auto antibody mediated hydrolysis” value (ESAMBPCAA [1]; intranasal, dose-dependent for SEQ ID NO: 2) was “most efficiently suppressed”, the “disease-preventive (prophylactic) activity” value [2] was “disease-preventive (prophylactic) activity” and the “% Animals affected with disease at day 100” value ([2]; 30 mice per group) was 19(30) %. For the same sequence, the “suppression of MDS score” value ([2]; FIG. 5) was “most efficiently suppressed”, the “ESAMBPCAA activity at day 100” value (ESAMBPCAA [3]) was 11.4 ± 3.5 pmol/min/nmol and the “suppression of MBP-specific auto antibody mediated hydrolysis” value (ESAMBPCAA [3]) was “most efficiently suppressed”. The “suppression of EAE clinical signs” value ([4]; 150 μg/rat/day SC during 6 days) was “most efficiently suppressed”, the “Clinical signs score on day 23 after induction (mean)” value ([4]; 150 μg/rat/day SC during 6 days from day 9-11 after EAE induction, score 0-5) was 0.5 and the “suppression of MDS score” value [5] was “most efficiently suppressed”. The “inhibition of ESAMBPCAA activity (ESAMBPCAA mediated MBP hydrolysis)” value (ESAMBPCAA [6]) was “most potent inhibitory activity”, the “suppressive effect on MBP-specific auto antibody mediated hydrolysis” value (ESAMBPCAA [7]; 100 nM, summary of Table 3) was “potent suppressive effect” and the “MBP-specific auto antibody mediated hydrolysis” value (ESAMBPCAA [7]; Patient 1) was 11.2 ± 3.5 pmol/min/nmol. For the same sequence, the “MBP-specific auto antibody mediated hydrolysis” value (ESAMBPCAA [7]; Patient 2) was 17.3 ± 4.1 pmol/min/nmol, the “MBP-specific auto antibody mediated hydrolysis” value (ESAMBPCAA [7]; Patient 3) was 14.4 ± 2.2 pmol/min/nmol and the “MBP-specific auto antibody mediated hydrolysis” value (ESAMBPCAA [7]; Patient 4) was 14.5 ± 4.4 pmol/min/nmol. The “MBP-specific auto antibody mediated hydrolysis” value (ESAMBPCAA [7]; Patient 5) was 16.9 ± 7.3 pmol/min/nmol.
